Here are results for two molecules from patent US7951775B2, “Methods and pharmaceutical compositions for GnRH-I and GnRH-II modulation of T-cell activity, adhesion, migration and extravasation” (priority 2001, dated 2011).

“Also recorded” adds a separate entry of the source.

For experiment [1], the system named is normal human T-cells. Briefly: Double immunofluorescence staining (FACS) for surface 67 kDa laminin receptor and TCR. As to conditions: for 67 kDa LR and TCR positive (double positive) cell population: 10 nM, 48 hours, 37° C., untreated 35.7%; for surface expression of the 67 kDa LR, in words: vs untreated normal human T-cells. It counts as cell-based. Here is the method: Normal human T-cells, isolated from fresh peripheral blood lymphocytes, or EL-4 T-lymphocyte cells were subjected to double immunofluorescence staining, using a mouse monoclonal anti-67 kDa LR antibody (100 μl of 1:20 dilution per 1×10^6 cells/tube; 30 minutes on ice), or normal mouse sera for control. The cells were then stained with an FITC-conjugated goat anti-mouse IgG (100 μl of 1:100 dilution), and PE-conjugated mouse anti-human TCR αβ mAb (2 μl of stock). Cells that were stained only with the second and third antibodies served as additional negative controls. Fluorescence profiles were recorded in a FACSORT. To determine whether GnRH-II and GnRH-I trigger not only the gene transcription but also the surface expression of the 67 kDa LR, normal human T-cells were treated with either GnRH-II or GnRH-I for 18-66 h and subjected to double immunofluorescence staining using a monoclonal antibody (mAb) that is specific for the 67 kDa LR, and a phycoerythrin (PE)-conjugated anti-TCRαβ mAb (to confirm the T-cell origin of the cells). FIGS. 2A-2C show the staining for the untreated, GnRH-I treated and GnRH-II treated T-cells, respectively. The FACS profiles can be interpreted by division according to four categories: 1. Negative staining for both mAbs (double negative, lower left quadrant); 2. Single positive staining only with the anti-LR mAb (lower right quadrant), 3. Single positive staining only with the anti-TCR mAb (upper left quadrant); 4. Double positive staining with both mAbs (upper right quadrant). […] In different experiments, each using freshly isolated T-cells from a different human donor, both GnRH II and GnRH I repeatedly elevated the laminin receptor expression level, but the magnitude of elevation varied within a range of 6-40%. Such variations between T-cell populations originating from different donors are often observed in respect to various T-cell features and functions.

The subject of experiment [2] is normal human T-cells. The experiment can be described thus: Double immunofluorescence staining for VLA-6 laminin-binding integrin and TCR. It counts as cell-based. To be noted: untreated cells about 75% double positive; data not shown. The source says:
Finally, the possibility that the stimulation of normal human T-cells by either GnRH-I, GnRH-II or anti-CD3+ anti-CD28 mAbs, elevates not only the non-integrin 67 kDa LR but also the expression level of the VLA-6 laminin-binding integrin (known to be expressed on T-cells) was investigated. […] Thus stimulation by GnRH-II and GnRH-I (as well as TCR-activation) primarily increases-the-protein surface expression of the non-integrin 67 kDa LR, but not of the VLA-6 laminin binding integrin.

The subject of experiment [3] is normal human T-cells. Briefly: In-vitro chemotactic migration assay towards SDF-1 through laminin-coated filters. Type of experiment: cell-based. To be noted: 10 nM, at least 18 h pretreatment; four independent experiments. Here is the method:
Normal human T-cells (1×10^6 cells/well in rest medium) were pretreated with GnRH-I or GnRH-II (10 nM, >18 hours, 37° C., 7.5% CO2 humidified incubator), washed, resuspended in adhesion medium and fluorescently labeled (50 μg/ml, 30 minutes, 37° C., 7.5% CO2 humidified incubator) with 2′,7′-bis-(2-carboxyethyl)-5-(and-6)-carboxyfluorescein acetoxymethyl (BCECF AM, Molecular Probes, Eugene, Oreg.). The cells were then washed, resuspended in adhesion medium, and added to the upper chambers (2×10^5 cells per 100 μl well) of a 24-well chemotaxis microchamber plate (Corning Inc., Corning, N.Y.). The two compartments of the microchambers were separated by polycarbonate filters ([…] pore size) pre-coated with laminin ([…], about 1.5 hour, 37° C.). […]
Adhesion of T-cells to components of the basement membrane is a crucial step in the series of events that eventually enable T-cells to migrate and extravasate from the blood stream to specific tissues. […] To determine whether GnRH can induce T-cells to migrate towards a chemoattractant, we made use of the Boyden chamber migration assay and scored the number of fluorescence-labeled normal human T-cells which migrated from a medium-containing upper chamber to a chemoattractant-containing lower chamber. […]

A further experiment concerns EL-4 T-lymphoma cells. The experiment can be described thus: Homing of GnRH-treated EL-4 T-lymphoma in vivo into specific organs of normal syngeneic mice. On the set-up: species or system mouse. To be noted: EL-4 cells treated ex vivo 10 nM; for mean number of EL-4 labeled cells detected in the bone marrow: 48 h, C57BL/6 recipients n=5, untreated 149825±8424; for increase in entry into bone marrow over untreated control cells: C57BL/6 recipients; for entry of EL-4 cells into the spleen / level of EL-4 cells entry into thymus, kidney and liver, or their number in the plasma: vs untreated cells. Here is the method:
Mouse EL-4 T-lymphoma cells were incubated without any further treatment or with either GnRH-I or GnRH-II (10 nM) for […] (37° C., 7.5% CO2 in a humidified incubator) and then washed, counted, and fluorescently labeled with BCECF AM (30 minutes 37° C., 7.5% CO2 humidified incubator), as described above.
Normal syngeneic C57BL/6 female recipient mice were then subjected to 300 rad total body irradiation, and several hours later inoculated I.P with 5×10^6 cells/mouse of either untreated or GnRH-treated EL-4 lymphoma cells. In parallel, samples from the treated and GnRH inoculated EL-4 cells were tested by double immunofluorescence (as described above) for the level of their 67 kD LR and TCRαβ. After […], the spleen, thymus, kidney, liver, bone marrow, and a fixed volume of blood were removed from the recipient mice into tubes containing 10 ml PBS, and cell suspensions were prepared from each organ of each individual mouse. Following further dilution in PBS for the kidney (1:3) and liver (1:10), the number of fluorescent cells, as well as the total number of cells in each tube, were counted by flow cytometry (FACSORT).
To assess whether exposure of EL-4 T-lymphoma cells to GnRH modulated their immigration and organ invasion profiles in vivo, the EL-4 cells were treated ex vivo with GnRH-I or GnRH-II (10 nM, 48 h), loaded with a fluorescent dye, and inoculated into normal syngeneic C57BL/6 (H-2b) recipient mice. After 48 hours, the spleen, thymus, kidney, liver, bone marrow, and a fixed volume of blood were removed, individual cells suspensions were prepared and the number of labeled immigrating cells, as well as the total number of cells present in each organ (labeled+non-labeled) was counted by flow cytometry.

In the case of “pGlu-His-Trp-Ser-Tyr-Gly-Leu-Arg-Pro-Gly-NH2 [GnRH-I]”, in the experiment on normal human T-cells [1], the “67 kDa LR and TCR positive (double positive) cell population” value stood at 72.4%; the “surface expression of the 67 kDa LR, in words” value is recorded as “significantly increased”. Also, the “expression level of VLA-6 laminin-binding integrin” value in the experiment with normal human T-cells [2] was “unaffected”. In the experiment on normal human T-cells [3], the “migration of T-cells towards chemoattractant SDF-1” value was “directly increase the migration potential; also recorded: significantly augments”. Moreover, in the experiment with EL-4 T-lymphoma cells, the “mean number of EL-4 labeled cells detected in the bone marrow” value was determined as 321400±15165; the “increase in entry into bone marrow over untreated control cells” value came out at 115%; the “entry of EL-4 cells into the spleen” value was “significant enhanced entry”; the “level of EL-4 cells entry into thymus, kidney and liver, or their number in the plasma” value is “did not affect”.

B1: GnRH-II: unique ten amino acid long neuropeptide, 70% homologous in peptide structure to GnRH-I, encoded by its own gene (peptide)
peptide: QHWSHGWYPGGKRALSSAQDPQNALRPPGRALDTAAGSPVQTAHGLPSDALAPLDDSMPWEGRTTAQWSLHRKRHLARTLLTAAREPRPAPPSSNKV
Turning to B1, in the experiment on normal human T-cells [1], the “67 kDa LR and TCR positive (double positive) cell population” value is given as 74.3%; the “surface expression of the 67 kDa LR, in words” value is listed as “significantly increased”. In the experiment on normal human T-cells [2], the “expression level of VLA-6 laminin-binding integrin” value is recorded as “unaffected”. For the same molecule, the “migration of T-cells towards chemoattractant SDF-1” value with normal human T-cells [3] is “directly increase the migration potential; also recorded: significantly augments”. Moreover, in the experiment with EL-4 T-lymphoma cells, the “mean number of EL-4 labeled cells detected in the bone marrow” value came to 219280±14003; the “increase in entry into bone marrow over untreated control cells” value stood at 46%; the “entry of EL-4 cells into the spleen” value was “significant enhanced entry”; the “level of EL-4 cells entry into thymus, kidney and liver, or their number in the plasma” value was “did not affect”.
